ChEMBL document CHEMBL1151634, “Phytochemical and biological screening of Saudi medicinal plants, Part 6. Isolation of 2 alpha-hydroxyalantolactone the antileukemic principle of Francoeuria crispa” (1984)
Values after ≈ are worked out from the molar mass of the structure shown.

What was measured:
Type in all cases: functional
P388 = assay: In vivo cytotoxicity against mouse P388 cells at 75 mg/kg relative to control
[1] = Cytotoxicity against human 9KB cells
[2] = Cytotoxicity against mouse 9PS cells
Staphylococcus aureus = assay: Antibacterial activity against Staphylococcus aureus NCTC 6571 after overnight incubation by tube dilution method

MIC (Staphylococcus aureus): 0.625 µg/mL (≈ 2.52 µM)
SMILES: C=C1C(=O)O[C@@H]2C[C@@]3(C)C[C@@H](O)C[C@H](C)C3=C[C@H]12
T/C (P388): 123%
Activity [1]: 2 ×10⁻¹ ug/ml
Activity [2]: 2 µg/mL
